Results taken from PubChem BioAssay (NCI).
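At the GI50, growth is halved. Definition used: TGI = concentration required for complete inhibition of growth.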

Legend:
Assay in all cases: growth of human tumour cells (NCI), 384-well format
HCT-15 colon = system: HCT-15 colon
HL-60(TB) leukemia = system: HL-60(TB) leukemia
SF-268 CNS = system: SF-268 CNS
T-47D breast = system: T-47D breast
SN12C renal = system: SN12C renal
OVCAR-5 ovarian = system: OVCAR-5 ovarian
A498 renal = system: A498 renal
DU-145 prostate = system: DU-145 prostate
A549 NSCLC = system: A549 NSCLC
M14 melanoma = system: M14 melanoma
IGROV1 ovarian = system: IGROV1 ovarian
NCI/ADR-RES ovarian = system: NCI/ADR-RES ovarian
SK-MEL-28 melanoma = system: SK-MEL-28 melanoma
NCI-H460 NSCLC = system: NCI-H460 NSCLC
MDA-MB-468 breast = system: MDA-MB-468 breast
SF-295 CNS = system: SF-295 CNS
HCT-116 colon = system: HCT-116 colon
OVCAR-4 ovarian = system: OVCAR-4 ovarian
UACC-257 melanoma = system: UACC-257 melanoma
MOLT-4 leukemia = system: MOLT-4 leukemia
MDA-MB-435 melanoma = system: MDA-MB-435 melanoma
HS 578T breast = system: HS 578T breast
UACC-62 melanoma = system: UACC-62 melanoma
SK-OV-3 ovarian = system: SK-OV-3 ovarian
SR leukemia = system: SR leukemia
EKVX NSCLC = system: EKVX NSCLC
SNB-75 CNS = system: SNB-75 CNS
HCC-2998 colon = system: HCC-2998 colon
SF-539 CNS = system: SF-539 CNS
HT29 colon = system: HT29 colon
MCF7 breast = system: MCF7 breast
KM12 colon = system: KM12 colon
U251 glioblastoma = system: U251 glioblastoma
SK-MEL-5 melanoma = system: SK-MEL-5 melanoma
UO-31 renal = system: UO-31 renal
OVCAR-3 ovarian = system: OVCAR-3 ovarian
PC-3 prostate = system: PC-3 prostate
COLO 205 colon = system: COLO 205 colon
SNB-19 CNS = system: SNB-19 CNS
NCI-H322M lung = system: NCI-H322M lung
NCI-H522 lung = system: NCI-H522 lung
RPMI-8226 leukemia = system: RPMI-8226 leukemia
NCI-H226 lung = system: NCI-H226 lung
RXF 393 renal = system: RXF 393 renal
SW-620 colon = system: SW-620 colon
ACHN renal = system: ACHN renal
CCRF-CEM leukemia = system: CCRF-CEM leukemia
OVCAR-8 ovarian = system: OVCAR-8 ovarian
CAKI-1 renal = system: CAKI-1 renal
786-0 renal = system: 786-0 renal
BT-549 breast = system: BT-549 breast
NCI-H23 lung = system: NCI-H23 lung
TK-10 renal = system: TK-10 renal
HOP-92 NSCLC = system: HOP-92 NSCLC
LOX IMVI melanoma = system: LOX IMVI melanoma
HOP-62 NSCLC = system: HOP-62 NSCLC
MDA-MB-231 breast = system: MDA-MB-231 breast
MALME-3M melanoma = system: MALME-3M melanoma

CNC(=O)c1c(C)oc2cc(Oc3ncnc4cc(OC)c(OC)cc34)ccc12
GI50 (HCT-15 colon): > 100 µM | TGI (HCT-15 colon): > 100 µM | GI50 (HL-60(TB) leukemia): > 100 µM | TGI (HL-60(TB) leukemia): > 100 µM | GI50 (SF-268 CNS): > 100 µM | TGI (SF-268 CNS): > 100 µM | GI50 (T-47D breast): > 100 µM | TGI (T-47D breast): > 100 µM | GI50 (SN12C renal): > 100 µM | TGI (SN12C renal): > 100 µM | GI50 (OVCAR-5 ovarian): > 100 µM | TGI (OVCAR-5 ovarian): > 100 µM | GI50 (A498 renal): > 100 µM | TGI (A498 renal): > 100 µM | GI50 (DU-145 prostate): > 100 µM | TGI (DU-145 prostate): > 100 µM | GI50 (A549 NSCLC): > 100 µM | TGI (A549 NSCLC): > 100 µM | GI50 (M14 melanoma): > 100 µM | TGI (M14 melanoma): > 100 µM | GI50 (IGROV1 ovarian): > 100 µM | TGI (IGROV1 ovarian): > 100 µM | GI50 (NCI/ADR-RES ovarian): > 100 µM | TGI (NCI/ADR-RES ovarian): > 100 µM | GI50 (SK-MEL-28 melanoma): > 100 µM | TGI (SK-MEL-28 melanoma): > 100 µM | GI50 (NCI-H460 NSCLC): > 100 µM | TGI (NCI-H460 NSCLC): > 100 µM | GI50 (MDA-MB-468 breast): > 100 µM | TGI (MDA-MB-468 breast): > 100 µM | GI50 (SF-295 CNS): > 100 µM | TGI (SF-295 CNS): > 100 µM | GI50 (HCT-116 colon): > 100 µM | TGI (HCT-116 colon): > 100 µM | GI50 (OVCAR-4 ovarian): > 100 µM | TGI (OVCAR-4 ovarian): > 100 µM | GI50 (UACC-257 melanoma): > 100 µM | TGI (UACC-257 melanoma): > 100 µM | GI50 (MOLT-4 leukemia): > 87.1 µM | TGI (MOLT-4 leukemia): > 100 µM | GI50 (MDA-MB-435 melanoma): > 100 µM | TGI (MDA-MB-435 melanoma): > 100 µM | GI50 (HS 578T breast): 25.5 µM | TGI (HS 578T breast): > 100 µM | GI50 (UACC-62 melanoma): > 100 µM | TGI (UACC-62 melanoma): > 100 µM | GI50 (SK-OV-3 ovarian): > 100 µM | TGI (SK-OV-3 ovarian): > 100 µM | GI50 (SR leukemia): > 61.5 µM | TGI (SR leukemia): > 100 µM | GI50 (EKVX NSCLC): > 100 µM | TGI (EKVX NSCLC): > 100 µM | GI50 (SNB-75 CNS): 4.3 µM | TGI (SNB-75 CNS): > 29.4 µM | GI50 (HCC-2998 colon): > 100 µM | TGI (HCC-2998 colon): > 100 µM | GI50 (SF-539 CNS): 10.2 µM | TGI (SF-539 CNS): > 100 µM | GI50 (HT29 colon): > 100 µM | TGI (HT29 colon): > 100 µM | GI50 (MCF7 breast): > 100 µM | TGI (MCF7 breast): > 100 µM | GI50 (KM12 colon): > 100 µM | TGI (KM12 colon): > 100 µM | GI50 (U251 glioblastoma): > 100 µM | TGI (U251 glioblastoma): > 100 µM | GI50 (SK-MEL-5 melanoma): > 100 µM | TGI (SK-MEL-5 melanoma): > 100 µM | GI50 (UO-31 renal): > 96.2 µM | TGI (UO-31 renal): > 100 µM | GI50 (OVCAR-3 ovarian): > 100 µM | TGI (OVCAR-3 ovarian): > 100 µM | GI50 (PC-3 prostate): > 100 µM | TGI (PC-3 prostate): > 100 µM | GI50 (COLO 205 colon): > 100 µM | TGI (COLO 205 colon): > 100 µM | GI50 (SNB-19 CNS): > 100 µM | TGI (SNB-19 CNS): > 100 µM | GI50 (NCI-H322M lung): > 100 µM | TGI (NCI-H322M lung): > 100 µM | GI50 (NCI-H522 lung): > 100 µM | TGI (NCI-H522 lung): > 100 µM | GI50 (RPMI-8226 leukemia): > 71.1 µM | TGI (RPMI-8226 leukemia): > 100 µM | TGI (NCI-H226 lung): > 100 µM | GI50 (RXF 393 renal): > 21.9 µM | TGI (RXF 393 renal): > 100 µM | GI50 (SW-620 colon): > 100 µM | TGI (SW-620 colon): > 100 µM | GI50 (ACHN renal): > 100 µM | TGI (ACHN renal): > 100 µM | GI50 (CCRF-CEM leukemia): > 100 µM | TGI (CCRF-CEM leukemia): > 100 µM | GI50 (OVCAR-8 ovarian): > 100 µM | TGI (OVCAR-8 ovarian): > 100 µM | GI50 (CAKI-1 renal): > 100 µM | TGI (CAKI-1 renal): > 100 µM | GI50 (786-0 renal): > 100 µM | TGI (786-0 renal): > 100 µM | GI50 (BT-549 breast): 11.5 µM | TGI (BT-549 breast): > 100 µM | GI50 (NCI-H23 lung): > 100 µM | TGI (NCI-H23 lung): > 100 µM | GI50 (TK-10 renal): > 100 µM | TGI (TK-10 renal): > 100 µM | GI50 (HOP-92 NSCLC): > 87.5 µM | TGI (HOP-92 NSCLC): > 100 µM | GI50 (LOX IMVI melanoma): > 100 µM | TGI (LOX IMVI melanoma): > 100 µM | GI50 (HOP-62 NSCLC): > 100 µM | TGI (HOP-62 NSCLC): > 100 µM | GI50 (MDA-MB-231 breast): > 100 µM | TGI (MDA-MB-231 breast): > 100 µM | GI50 (MALME-3M melanoma): > 100 µM | TGI (MALME-3M melanoma): > 100 µM
